According to ChEMBL document CHEMBL1240427, “Chemistry around imidazopyrazine and ibuprofen: discovery of novel fatty acid amide hydrolase (FAAH) inhibitors” (Eur J Med Chem, 2010):

Each compound was assayed on Caco-2 (assay: Effect in human Caco-2 cells assessed as IL-1-beta-induced IL8 production relative to control at 5 uM after 24 hrs by ELISA). Settings: Caco-2, 24 h.

| Compound | level, % of control at 5 µM [%] |
| --- | --- |
| N=c1c(-c2ccccc2)nc2c[nH]c(-c3ccc(O)cc3)cn1-2 | 75 |

What follows are compounds tested on Caco-2 (assay: Effect in human Caco-2 cells assessed as IL-1-beta-induced IL8 production relative to control at 50 uM after 24 hrs by ELISA). Settings: Caco-2, 24 h.

| Compound | level, % of control at 50 µM [%] |
| --- | --- |
| CC(C)Cc1ccc(C(C)C(=O)/C=N/O)cc1 (configuration not stated) | 290 |
| Oc1ccc(-c2cn3c(O)c(-c4ccccc4)nc3cn2)cc1 | 65 |
| CON(C)C(=O)C(C)c1ccc(CC(C)C)cc1 (configuration not stated) | 55 |
| CC(C)Cc1ccc(C(C)C(=O)CCl)cc1 (configuration not stated) | 70 |
| N=c1c(-c2ccccc2)nc2c[nH]c(-c3ccc(O)cc3)cn1-2 | 56 |
| CC(C)Cc1ccc(C(C)C(=O)n2nnc3ccccc32)cc1 (configuration not stated) | 76 |
